Here are results for two molecules from publication PMC11110727, “Exploiting thiol-functionalized benzosiloxaboroles for achieving diverse substitution patterns – synthesis, characterization and biological evaluation of promising antibacterial agents” (RSC Medicinal Chemistry, 2024).

The test system of one assay is S. cerevisiae ATCC 9763. As to the kind of experiment: Antifungal activity: MIC/MFC, disc-diffusion. Format: cell-based, Saccharomyces cerevisiae. The method, then:
(§1) Direct antimicrobial activity was determined against the following standard strains: (1) Gram-positive cocci: methicillin-sensitive Staphylococcus aureus ATCC 6538P (MSSA), methicillin-resistant S. aureus subsp. aureus ATCC 43300 (MRSA), S. epidermidis ATCC 12228, Enterococcus faecium ATCC 6057, E. faecalis ATCC 29212, Bacillus subtilis ATCC 6633; (2) Gram-negative bacteria from Enterobacteriales order: Klebsiella pneumoniae ATCC 13883, Escherichia coli ATCC 25922, Enterobacter cloacae DSM 6234, Proteus mirabilis ATCC 12453, Serratia marcescens ATCC 13880; (3) Gram-negative non-fermentative rods: Acinetobacter baumannii ATCC 19606, Pseudomonas aeruginosa ATCC 27853, Stenotrophomonas maltophilia ATCC 12714, S. maltophilia ATCC 13637, Burkholderia cepacia ATCC 25416, Bordetella bronchiseptica ATCC 4617; (4) yeasts: Candida albicans ATCC 90028, C. krusei ATCC 6258, C. parapsilosis ATCC 22019, C. tropicalis (Castellani) Berkhout ATCC 750, C. tropicalis IBA 171, C. guilliermondii IBA 155, and Saccharomyces cerevisiae ATCC 9763. Moreover, 5 clinical strains of methicillin-resistant S. aureus were also included: NMI 664 K, NMI 1576 K, NMI 1712 K, NMI 1991 K, and NMI 2541 K. All strains were stored at −80 °C. Prior to testing, each bacterial strain was subcultured twice on tryptic soy agar TSA (bioMerieux) medium and yeast strains on Sabouraud dextrose agar (bioMerieux) for 24–48 h at 30 °C to ensure viability. The antimicrobial activity was evaluated as previously described[26] by the disc-diffusion method and the MIC determination assays according to the EUCAST (ref. [71] and [72]) and CLSI (ref. [53] and [73]) recommendations. Assessment of bactericidal (MBC) and fungicidal (MFC) activities was performed according to the CLSI recommendations.[54,74] The following reference agents were used: fluconazole (in the case of fungi), linezolid (for Gram-positive bacteria), and nitrofurantoin (for Gram-negative rods). The new benzosiloxaboroles were dissolved in DMSO (Sigma).
Background: A growth-free zone around the sample is the usual read-out of agar diffusion tests.

Another assay has as its system C. krusei ATCC 6258. As to the kind of experiment: Antifungal activity: MIC/MFC, disc-diffusion. Format: cell-based. As to the method:
as §1, with “The following reference agents were used: fluconazole (in the case of fungi), linezolid (for Gram-positive bacteria), and nitrofurantoin (for Gram-negative rods).” left out

The subject of assay [1] is C. parapsilosis ATCC 22019. As to the kind of experiment: Antifungal activity: MIC/MFC, disc-diffusion. Format: cell-based. The method, then: as §1
For another assay, the system named is C. tropicalis IBA 171. As to the kind of experiment: Antifungal activity: MIC/MFC, disc-diffusion. The format is cell-based. As to the method: as §1
In assay [2] the test system is C. guilliermondii IBA 155. As to the kind of experiment: Antifungal activity: MIC/MFC, disc-diffusion. Format: cell-based. As to the method: as §1
The next assay relates to C. tropicalis ATCC 750. Kind of assay: Antifungal activity: MIC/MFC, disc-diffusion. Format: cell-based. The method, then: as §1
Another assay deals with C. albicans ATCC 90028. As to the kind of experiment: Antifungal activity: MIC/MFC, disc-diffusion. The format is cell-based, Candida albicans. As to the method: as §1
Assay [3] relates to B. bronchiseptica ATCC 4617. As to the kind of experiment: Antibacterial activity: MIC/MBC, disc-diffusion. The format is cell-based, Bordetella bronchiseptica. The conditions noted are these: Bordetella bronchiseptica, ATCC4617, B. bronchiseptica ATCC 4617. As to the method: as §1, with “The following reference agents were used: fluconazole (in the case of fungi), linezolid (for Gram-positive bacteria), and nitrofurantoin (for Gram-negative rods).” left out
(§2) Considering that the MDR efflux pumps often contribute to Gram-negative rod resistance, the MIC values of studied agents, with or without the pump inhibitor, PAβN (20 μg mL^−1) (Sigma), were determined.[75] The MIC was determined using Mueller–Hinton II broth medium (MHB) (Becton Dickinson) by the broth microdilution method, according to the CLSI guideliness.[53] To minimize the influence of PAβN on the destabilization of bacterial cell covers, the tests were conducted in the presence of 1 mM MgSO4 (Sigma).[76] At least a 4-fold reduction in the MIC value after the addition of PAβN was considered significant.[56,77]

The subject of another assay is P. aeruginosa ATCC 27853. Kind of assay: Antibacterial activity: MIC/MBC, MIC with PAβN, disc-diffusion. The format is cell-based. The conditions noted are these: Pseudomonas aeruginosa, ATCC27853, P. aeruginosa ATCC 27853. The method, then: as §1, with “The following reference agents were used: fluconazole (in the case of fungi), linezolid (for Gram-positive bacteria), and nitrofurantoin (for Gram-negative rods).” left out
as §2

The test system of a further assay is E. cloacae DSM 6234. The description is as above. The conditions noted are these: E. cloacae DSM 6234. Format: cell-based, Enterobacter cloacae. The method, then: as §1, with “The following reference agents were used: fluconazole (in the case of fungi), linezolid (for Gram-positive bacteria), and nitrofurantoin (for Gram-negative rods).” left out
as §2

Another assay relates to E. coli ATCC 25922. The description is as above. The conditions noted are these: E. coli ATCC 25922. The format is cell-based, Escherichia coli. The method, then:
as §1, with “The following reference agents were used: fluconazole (in the case of fungi), linezolid (for Gram-positive bacteria), and nitrofurantoin (for Gram-negative rods).” left out
as §2

A further assay concerns S. marcescens ATCC 13880. The description is as above. Format: cell-based, Serratia marcescens. The conditions noted are these: S. marcescens ATCC 13880. The method, then: as §1, with “The following reference agents were used: fluconazole (in the case of fungi), linezolid (for Gram-positive bacteria), and nitrofurantoin (for Gram-negative rods).” left out
as §2

The test system of another assay is P. mirabilis ATCC 12453. Described as above. The format is cell-based, Proteus mirabilis. The conditions noted are these: P. mirabilis ATCC 12453. The method, then:
as §1, with “The following reference agents were used: fluconazole (in the case of fungi), linezolid (for Gram-positive bacteria), and nitrofurantoin (for Gram-negative rods).” left out
as §2

The next assay concerns A. baumannii ATCC 19606. The assay is described as above. The conditions noted are these: A. baumannii ATCC 19606. The format is cell-based, Acinetobacter baumannii. As to the method: as §1, with “The following reference agents were used: fluconazole (in the case of fungi), linezolid (for Gram-positive bacteria), and nitrofurantoin (for Gram-negative rods).” left out
as §2

A further assay has as its system B. cepacia ATCC 25416. Kind of assay: Antibacterial activity: MIC/MBC, disc-diffusion. The format is cell-based, Burkholderia cepacia. The conditions noted are these: B. cepacia ATCC 25416. As to the method: as §1, with “The following reference agents were used: fluconazole (in the case of fungi), linezolid (for Gram-positive bacteria), and nitrofurantoin (for Gram-negative rods).” left out
as §2

Another assay has as its system K. pneumoniae ATCC 13883. Kind of assay: Antibacterial activity: MIC/MBC, MIC with PAβN, disc-diffusion. The format is cell-based, Klebsiella pneumoniae. The conditions noted are these: K. pneumoniae ATCC 13883. As to the method: as §1, with “The following reference agents were used: fluconazole (in the case of fungi), linezolid (for Gram-positive bacteria), and nitrofurantoin (for Gram-negative rods).” left out
as §2

Assay [4] relates to S. maltophilia ATCC 13637. The assay is described as above. The conditions noted are these: Stenotrophomonas maltophilia, ATCC13637, S. maltophilia ATCC 13637. The format is cell-based, Stenotrophomonas maltophilia. The method, then:
as §1, with “The following reference agents were used: fluconazole (in the case of fungi), linezolid (for Gram-positive bacteria), and nitrofurantoin (for Gram-negative rods).” left out
as §2

In assay [5] the test system is S. maltophilia ATCC 12714. The assay is described as above. The conditions noted are these: Stenotrophomonas maltophilia, ATCC12714, S. maltophilia ATCC 12714. The format is cell-based, Stenotrophomonas maltophilia. As to the method:
as §1, with “The following reference agents were used: fluconazole (in the case of fungi), linezolid (for Gram-positive bacteria), and nitrofurantoin (for Gram-negative rods).” left out
as §2

Where [6] appears, read: (-) = zone not observed, paper discs 9 mm.

≈ marks a conversion by molar mass, not a printed value.

By MIC is commonly meant the smallest concentration in the dilution series that meets the test's criterion for growth inhibition. As to `OC(Cn1cncn1)(Cn1cncn1)c1ccc(F)cc1F` [FL, fluconazole, reference compound], the “diameter of inhibition zone” value was found to be 12 mm in the assay on S. cerevisiae ATCC 9763 (S. cerevisiae ATCC 9763, (-) = zone not observed, paper discs 9 mm); 16 mm in the assay with C. krusei ATCC 6258 (C. krusei ATCC 6258, (-) = zone not observed, paper discs 9 mm); 32 mm in assay [1] (C. parapsilosis ATCC 22019, (-) = zone not observed, paper discs 9 mm); 39 mm with C. tropicalis IBA 171 (C. tropicalis IBA 171, (-) = zone not observed, paper discs 9 mm); 40 mm in assay [2] (C. guilliermondii IBA 155, (-) = zone not observed, paper discs 9 mm); 40 mm in the assay with C. tropicalis ATCC 750 (C. tropicalis ATCC 750, (-) = zone not observed, paper discs 9 mm). The “diameter of inhibition zone” value in the assay with C. albicans ATCC 90028 (C. albicans ATCC 90028, (-) = zone not observed, paper discs 9 mm) was found to be 43 mm. The MIC with S. cerevisiae ATCC 9763 (Saccharomyces cerevisiae, ATCC9763, read-out: MIC) is 16 µg/mL (≈ 52.2 µM); with C. krusei ATCC 6258 (Pichia kudriavzevii, ATCC6258, read-out: MIC), 64 µg/mL (≈ 209 µM); in assay [1] (Lodderomyces parapsilosis, ATCC22019, read-out: MIC) it was 2 µg/mL (≈ 6.53 µM); with C. tropicalis IBA 171 (Candida tropicalis, IBA171, read-out: MIC), 0.38 µg/mL (≈ 1.24 µM); in [2] (Meyerozyma guilliermondii, IBA155, read-out: MIC), 0.75 µg/mL (≈ 2.45 µM); with C. tropicalis ATCC 750 (Candida tropicalis, ATCC750, read-out: MIC), 0.38 µg/mL (≈ 1.24 µM). In the assay with C. albicans ATCC 90028 (Candida albicans, ATCC90028, read-out: MIC), the MIC worked out at 1 µg/mL (≈ 3.27 µM).

Broadly, the MBC is the smallest concentration meeting the test's criterion for killing. Take `O=C1CN(/N=C/c2ccc([N+](=O)[O-])o2)C(=O)N1` [NF, nitrofurantoin, reference compound]: the MBC in assay [3] is 128 µg/mL (≈ 537 µM); in the assay on P. aeruginosa ATCC 27853, above 128 µg/mL; with E. cloacae DSM 6234 (Enterobacter cloacae, DSM6234), 32 µg/mL (≈ 134 µM); against E. coli ATCC 25922 (Escherichia coli, ATCC25922), 8 µg/mL (≈ 33.6 µM); in the assay with S. marcescens ATCC 13880 (Serratia marcescens, ATCC13880), above 128 µg/mL; against P. mirabilis ATCC 12453 (Proteus mirabilis, ATCC12453), above 128 µg/mL. For the same molecule, the MBC against A. baumannii ATCC 19606 (Acinetobacter baumannii, ATCC19606) was 128 µg/mL (≈ 537 µM); against B. cepacia ATCC 25416 (Burkholderia cepacia, ATCC25416), 32 µg/mL (≈ 134 µM); in the assay with K. pneumoniae ATCC 13883 (Klebsiella pneumoniae, ATCC13883) it was 32 µg/mL (≈ 134 µM); in [4] it was above 128 µg/mL; in [5] it was above 128 µg/mL. Further, the MIC is 64 µg/mL (≈ 269 µM) in assay [3] (read-out: MIC); above 128 µg/mL with P. aeruginosa ATCC 27853 (read-out: MIC); 32 µg/mL (≈ 134 µM) with E. cloacae DSM 6234 (Enterobacter cloacae, DSM6234, read-out: MIC); 8 µg/mL (≈ 33.6 µM) in the assay on E. coli ATCC 25922 (Escherichia coli, ATCC25922, read-out: MIC); 128 µg/mL (≈ 537 µM) in the assay on S. marcescens ATCC 13880 (Serratia marcescens, ATCC13880, read-out: MIC); 128 µg/mL (≈ 537 µM) with P. mirabilis ATCC 12453 (Proteus mirabilis, ATCC12453, read-out: MIC). Besides, the MIC came out at 64 µg/mL (≈ 269 µM) with A. baumannii ATCC 19606 (Acinetobacter baumannii, ATCC19606, read-out: MIC); 32 µg/mL (≈ 134 µM) in the assay with B. cepacia ATCC 25416 (Burkholderia cepacia, ATCC25416, read-out: MIC); 32 µg/mL (≈ 134 µM) in the assay with K. pneumoniae ATCC 13883 (Klebsiella pneumoniae, ATCC13883, read-out: MIC); 128 µg/mL (≈ 537 µM) in [4] (read-out: MIC); 128 µg/mL (≈ 537 µM) in assay [5] (read-out: MIC). Besides, the “diameter of inhibition zone” value is given as 17 mm in the assay with E. cloacae DSM 6234 (setting [6]); 24 mm in the assay on E. coli ATCC 25922 (setting [6]); 12 mm in the assay on S. marcescens ATCC 13880 (setting [6]); 9 mm with P. mirabilis ATCC 12453 (setting [6]); 9 mm with A. baumannii ATCC 19606 (setting [6]); 12 mm with B. cepacia ATCC 25416 (setting [6]). In addition, in the assay on K. pneumoniae ATCC 13883 (setting [6]), the “diameter of inhibition zone” value is listed as 23 mm.
